Experimental data as given in patent publication US12169196B2, “Human iPSC-based drug testing platform for muscular dystrophy” (The Johns Hopkins University, priority 2019, dated 2024).
Entries after “also recorded” stand apart in the source; their conditions may differ.

Key:
D2 myoblasts = system: D2 myoblasts
Procedure: FIG. 7A: 9 primary hit compounds dose-response measured by MyHC antibody immunofluorescent intensity/nuclei. Concentrations of compounds were 0.001, 0.01, 0.1, 1, 2, 3, 4, 6 μM, except for saponin Q. which was 0.001, 0.01, 0.1, 0.2, 0.4, 0.6, 1 μM (n=3 for all). FIG. 7B: 9 primary hit compounds dose-response measured by α-actinin antibody immunofluorescent intensity/nuclei. Concentrations were same as in (FIG. 7A) (n=3 for all). FIGS. 7C-7E: Dose-response measured by cell average length of 3 analogs of saponin Q (n=3). […] (Data=Mean±SEM).
To further evaluate the efficacy of the 9 hit compounds and determine their optimal concentrations, an 8-point dose response assay was conducted, based on three parameters: anti-MyHC immunocytochemistry, anti-α-actinin immunocytochemistry and average cell length (FIGS. 7A-7B).

FLT3 signaling pathway = details: 5 μM, 24 h
Excerpt: Triplicate samples were used in microarray analysis. […] RNA was isolated using TRIzol (Invitrogen Life Technologies, Carlsbad, CA) followed by purification and DNase digestion using RNeasy mini kits (Qiagen, Venlo, Netherlands) according to manufacturer's instructions. […] Generation of sense strand cDNA from purified total RNA was followed by second strand synthesis, in vitro transcription cDNA synthesis, and single stranded cDNA synthesis and RNA hydrolysis. Fragmentation and labelling were performed according to manufacturer's instructions (GeneChip WT Plus reagent kit, Affymetrix, Santa). RNA extraction and qPCR were performed according to previous protocols, and primers are included in Table 1. The microarray data has been deposited in NCBI's Gene Expression Omnibus database and is accessible through the GEO series accession number GSE121023.

p21 (WAF1/CIP1) = experiment: Western blot of p21 protein expression in D2 myoblasts; assay type: cell-based, human; details: ginsenoside 25 μM or FLT3 recombinant protein 100 ng/ml, 30 min
Procedure: FIG. 3A: Top pathways selected by ingenuity pathway analysis of microarray result from ginsenoside Rd and fenofibrate-treated D2 myoblasts for 24 hours. Absolute z-score values above 2 were highlighted in red. FIGS. 3B and 3D: Quantification of western blot of p21 protein expression in D2 myoblasts treated with ginsenoside (25 μM), FLT3 recombinant protein (100 ng/ml) or DMSO for 30 min, n=4, *P≤0.05. FIG. 3C, 3E: Quantification of western blot of phosphorylated ERK 1/2 (p-ERK 1/2) in D2 myoblasts treated with ginsenoside (25 μM), FLT3 recombinant protein (100 ng/ml) or DMSO for 30 min, n=4, *P≤0.05. […] (Data=Mean±SEM, FIGS. 3D, 3E: one-way ANOVA with Dunnett's multiple comparison test with DMSO negative control, FIG. 3G: one-way ANOVA with Tukey's multiple comparison test).
Whole-cell extracts were prepared by lysing cells on plate with RIPA buffer (CST) supplemented by proteinase inhibitor and phosphatase inhibitor cocktail (CST). Western blotting was performed according to the standard protocol using precast NuPAGE (4-12%) Bis-Tris gel (Invitrogen). Protein transfer was performed with the Bio-Rad turbo or wet/tank blotting system. […] Membranes were then incubated with a secondary IRDye 800 conjugated anti-rabbit IgG, or Alexa Fluor 680 anti-mouse IgG and proteins were visualized and quantified using the LI-COR Odyssey Infrared Imaging System (LI-COR). […]

ERK1/2 = experiment: Western blot of phosphorylated ERK 1/2 in D2 myoblasts; assay type: cell-based, human; details: ginsenoside 25 μM or FLT3 recombinant protein 100 ng/ml, 30 min
Procedure: Whole-cell extracts were prepared by lysing cells on plate with RIPA buffer (CST) supplemented by proteinase inhibitor and phosphatase inhibitor cocktail (CST). […] Protein transfer was performed with the Bio-Rad turbo or wet/tank blotting system. Nitrocellulose membranes were incubated with primary antibodies overnight at 4° C. Membranes were then incubated with a secondary IRDye 800 conjugated anti-rabbit IgG, or Alexa Fluor 680 anti-mouse IgG and proteins were visualized and quantified using the LI-COR Odyssey Infrared Imaging System (LI-COR). Primary antibodies applied in this study were all purchased from Cell Signaling Technology except for the MEF2C antibody, which was from Sigma.

mdx^5cv mice [1] = experiment: Evans blue staining and central nucleated fiber histology; assay type: in vivo, mouse; details: 8 weeks treatment
Excerpt: (§1) All animal experiments were approved by the Institutional Animal Care and Use Committee (IACUC) of The Johns Hopkins University, School of Medicine (Baltimore, Maryland). Mdx^5cv (B6Ros.Cg-Dmdmdx-5Cv/J) were obtained from The Jackson Laboratory. Mice were maintained in a 12-h light cycle (7 am-7 pm) with ad libitum access to food and water. […] Ginsenoside Rd was suspended in saline containing 10% 1,3-propanediol as vector.
Gastrocnemius, tibialis anterior, and diaphragm muscles were embedded in OCT, frozen in isopentane, and cross-sectioned (˜2-10 μm thickness). The sections were also stained with DAPI to visualize nuclei. In mice where Evans blue dye (EBD, 10 mg/ml) was used to evaluate membrane damage, EBD was injected at 0.05 ml/10 g intraperitoneally, 24 hours before sacrificing the mice. To evaluate EBD staining, gastrocnemius muscle sections were fixed with acetone and imaged with fluorescence microscopy. The area of EBD as a percentage of total area was calculated. To evaluate the number of central nucleated fibers, sections of the tibialis anterior muscle were stained with hematoxylin and eosin. Central nucleated fiber number was counted and analyzed against total fiber number. Diaphragm sections (10 μm) were stained with Masson's trichrome to determine collagen content. The stained areas were quantified against the total area.

mdx^5cv mice [2] = experiment: Forelimb grip strength; assay type: in vivo, mouse; details: 8 weeks treatment
Procedure: as §1
(§2) Forelimb grip strength was measured as maximal tensile force using a computerized force transducer (Grip Strength Meter, Bioseb). Five measurements were performed for each animal and the maximum value was used for the analysis. Treadmill testing was performed using a motor-driven treadmill (Columbus Instruments). Prior to the test day, acclimatization was performed 5 times over a period of 2 weeks at 10 m/min. On the test day, mice ran at 5 m/min for 5 min (warm up) and the speed was increased 1 m/min every min up to 10 m/min. Mice were considered exhausted when they sat for more than 10 sec on a shock pad for the third time.

mdx^5cv mice [3] = experiment: Treadmill running; assay type: in vivo, mouse; details: 1344 h
Procedure: as §1, §2

mdx^5cv mice [4] = experiment: Tibialis anterior muscle strength and rate of fatigue; assay type: in vivo, mouse
Excerpt: as §1
Tibialis anterior muscle strength (maximal isometric force) and rate of fatigue were measured. Briefly, animals were anaesthetized with 3-5% isoflurane and placed in a supine position. The tibia was stabilized and the distal tendon of the tibialis anterior (TA) was surgically released and attached to the load cell (FT03, Grass Instruments, Warwick, RI). The load cell was adjusted via a micromanipulator to stretch the muscle to resting length (aka, optimal length). TA contraction was then triggered via subcutaneous stimulation of the fibular nerve, and the resulting force generated was sampled at 1 kHz and analyzed with acquisition software (PolyVIEW™ 16, Grass Instruments). After contractile function experiments, animals were euthanized and the TAs were harvested and weighed. […] To provide an index of fatigue, muscle tension was measured after 5 minutes of tetanic stimulation (200 ms train duration) repeated at 1 Hz and expressed as a percentage of initial tension.

In the case of `CC(C)=CCC[C@](C)(O[C@@H]1O[C@H](CO)[C@@H](O)[C@H](O)[C@H]1O)[C@H]1CC[C@]2(C)[C@@H]1[C@H](O)C[C@@H]1[C@@]3(C)CC[C@H](O[C@@H]4O[C@H](CO)[C@@H](O)[C@H](O)[C@H]4O[C@@H]4O[C@H](CO)[C@@H](O)[C@H](O)[C@H]4O)C(C)(C)[C@@H]3CC[C@]12C` [ginsenoside Rd], the “fusion of DMD hiPSC-derived myoblasts” value (D2 myoblasts) was “helped restore fusion”, the “toxicity / cell death” value (D2 myoblasts) was “lower toxicity” and the “dose-dependent effect on D2 myoblasts (cell average length)” value (D2 myoblasts; saponin analog test) was “dose-dependent effect”. For the same compound, the “ingenuity pathway analysis z-score, FLT3 signaling pathway” value (FLT3 signaling pathway) was over 2, the “levels of p21” value (p21 (WAF1/CIP1)) was “Increased levels of p21” and the “ERK1/2 activation (p-ERK 1/2)” value (ERK1/2) was “activated”. The “number of Evans blue dye positive fibers” value (mdx^5cv mice [1]; gastrocnemius) was “not significantly different”, the central nucleated fibers (mdx^5cv mice [1]; tibialis anterior) was “not significantly different” and the “improvement of forelimb grip strength” value (mdx^5cv mice [2]) was 19%. For the same compound, the “improvement of endurance on treadmill running” value (mdx^5cv mice [3]) was “no effect”, the “susceptibility of TA muscles to fatigue (repeated maximal isometric contractions)” value (mdx^5cv mice [4]; compared to mdx TA muscles) was “less susceptible to fatigue; also recorded: increased their resistance to fatigue” and the “maximal isometric force generated by tibialis anterior (TA)” value (mdx^5cv mice [4]; compared with sham control) was “no significant difference”.
